Measured values: patent publication US4574117A, “Stabilization of phenylalanine ammonia-lyase in a bioreactor using reducing agents” (Genex Corporation, priority 1984, dated 1986)
Each block holds one compound with its values, some of them ahead of it.

Legend:
[1] = test system: PAL; conditions: cited from earlier work
[2] = target: T1, phenylalanine ammonia-lyase (PAL) (Rhodotorula mucilaginosa, UniProt P10248); assay: Example 1: L-phenylalanine bioreaction with PAL-containing cells, 2-mercaptoethanol at 100, 500 and 1000 mg/liter; format: biochemical, Rhodotorula rubra; conditions: after 15 hours, 35° C., pH 10.5; for L-Phenylalanine Produced: ammonium sulfate
T1 construct: endogenous in cells; host or cells: Rhodotorula rubra cells (aerobic fermentation, whole cells harvested by centrifugation)
T1 sequence (P10248 1-713): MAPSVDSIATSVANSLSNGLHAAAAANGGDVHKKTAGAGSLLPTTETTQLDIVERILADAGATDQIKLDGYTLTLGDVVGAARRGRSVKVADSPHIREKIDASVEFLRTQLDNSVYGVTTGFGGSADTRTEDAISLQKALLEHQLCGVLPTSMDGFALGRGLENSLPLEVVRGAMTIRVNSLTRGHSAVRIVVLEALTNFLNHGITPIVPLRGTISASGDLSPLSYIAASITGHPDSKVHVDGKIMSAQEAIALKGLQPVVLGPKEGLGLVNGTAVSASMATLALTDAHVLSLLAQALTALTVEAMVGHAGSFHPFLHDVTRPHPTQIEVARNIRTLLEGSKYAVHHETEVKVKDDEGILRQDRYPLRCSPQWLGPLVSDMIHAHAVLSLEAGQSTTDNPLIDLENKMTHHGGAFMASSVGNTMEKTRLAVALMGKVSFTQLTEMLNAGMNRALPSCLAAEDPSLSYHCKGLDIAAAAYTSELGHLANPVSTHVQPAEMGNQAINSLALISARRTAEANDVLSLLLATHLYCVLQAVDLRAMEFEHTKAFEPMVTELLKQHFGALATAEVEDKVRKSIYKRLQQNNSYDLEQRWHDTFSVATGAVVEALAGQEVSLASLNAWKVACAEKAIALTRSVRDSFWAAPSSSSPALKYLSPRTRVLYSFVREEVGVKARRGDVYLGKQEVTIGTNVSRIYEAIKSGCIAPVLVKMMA
Excerpt: Microbial cells containing a high level of activity of phenylalanine ammonia-lyase (PAL) were produced by aerobic fermentation. A 14 liter fermentor containing 10 liters of nutrient medium was inoculated with a seed culture of Rhodotorula rubra. The nutrient medium consisted of: soy peptone 2.7%; casein hydrolysate (Sheffield NZ-Amine) 1.35%; and corn steep liquor 0.18%. The fermentor contents were aerated and agitated, and the pH was maintained at 6.0 by periodic additions of ammonia water or sulfuric acid. During the fermentation, the PAL activity of the cells was monitored, and when the PAL activity reached a maximum (approximately 22 hours after inoculation), the fermentation was stopped by shutting off the aeration and agitation. The vessel was de-aerated by sparging with nitrogen gas. The microbial cells were separated from the fermentation broth by centrifugation, and stored at 4° C. Four 14 liter vessels were each filled with 13 liters of a substrate solution containing: ammonia, 4 mole/liter; ammonium sulfate, 100 gram/liter; and trans-cinnamic acid, 10 gram/liter. The pH of the solution was 10.5, and the temperature was maintained at 35° C. The vessels were deaerated by sparging with nitrogen gas, and 2-mercaptoethanol was added to three of the vessels in amounts of 100, 500, and 1000 mg/liter. PAL-containing microbial cells were then added to all four vessels in the amount of 1.35 gram (dry basis) per liter. The vessels were agitated for one minute every three hours. Supplemental trans-cinnamic acid was added to the vessels in the amount of 2.5 gram/liter at 3, 6, 9, and 12 hours after the addition of cells. After 15 hours, the concentration of L-phenylalanine in the reaction mixture was measured, and the PAL activity of the cells was determined. The results, which are shown in Table I, indicate that the stability of PAL was enhanced by the reducing agent, with the result that a greater quantity of L-phenylanine was produced. The optimum concentration for 2-mercaptoethanol is between 100 and 1000 mg/liter.

[3] = target: T1, phenylalanine ammonia-lyase (PAL); assay: Example 4: 300 gallon reactor bioreaction with 2-mercaptoethanol; format: biochemical, Rhodotorula rubra; conditions: 404 ml 2-mercaptoethanol in 900 liters substrate solution, after 53.5 hours, 30° C.
Procedure: PAL-containing microbial cells were cultivated in three 250-liter fermentors, each containing 163 liters of nutrient medium. The medium was composed of: yeast extract (Amber Laboratories, Amberex 1003) 1.38%; beet molasses 4%; diammonium phosphate 0.18%; and L-phenylalanine 0.92%. The fermentor was inoculated with a shake flask culture of Rhodotorula rubra. The fermentation was carried out at 30° C. with aeration and agitation. The pH was maintained at 6.0 by periodic additions of ammonia water or sulfuric acid. During the fermentation, the PAL activity of the microbial cells was monitored, and when the PAL activity reached a maximum, at 28-30 hours after inoculation, the fermentations were stopped by shutting off the aeration and agitation. The vessels were de-aerated by sparging with nitrogen gas. Microbial cells were harvested by means of a Westfalia disc-bowl centrifuge. The combined yield of cells from all three fermentators was 5.04 kg (dry basis). Substrate solution for L-phenylalanine production was prepared as follows. […] The trans-cinnamic acid concentration in the reaction mixture was monitored at intervals of approximately two hours, and supplemental trans-cinnamic acid was added whenever necessary, to maintain a concentration of between 10 and 18 gram/liter. […]

[4] = target: T1, phenylalanine ammonia-lyase (PAL); assay: Example 2: bioreaction in ammonium carbonate or ammonium sulfate substrate solution with 2-mercaptoethanol; format: biochemical, Rhodotorula rubra; conditions: 600 mg/l 2-mercaptoethanol, after 15 hours
Procedure: Four 14 liter vessels were each filled with 13 liters of substrate solution. In two of the vessels, the substrate solution contained: ammonia, 5 mole/liter; ammonium carbonate, 120 gram/liter; and trans-cinnamic acid, 10 gram/liter. The other two vessels contained a substrate solution composed of: ammonia, 4.2 mole/liter; ammonium sulfate, 75 gram/liter; and trans-cinnamic acid, 10 gram/liter. The pH in all four vessels was 10.5, and the temperature was maintained at 35° C. All four vessels were de-aerated by sparging with nitrogen gas. Finally, one vessel of each pair had 600 mg/liter of 2-mercaptoethanol added. The reaction was started by adding PAL-containing microbial cells to each of the four vessels in the amount of 1.7 gram (dry basis) per liter. (The microbial cells were produced by the method of Example 1.) The vessels were agitated for one minute every three hours. Supplemental trans-cinnamic acid was added to all four vessels in the amount of 2.5 gram/liter at 3, 6, 9, and 12 hours after the addition of cells. After 15 hours, the concentration of L-phenylalanine in the reaction mixtures was measured, and the PAL activity of the cells was determined.

[5] = target: T1, phenylalanine ammonia-lyase (PAL); assay: Example 3: optimum concentration of 2-mercaptoethanol, five vessels; format: biochemical, Rhodotorula rubra; conditions: for L-Phenylalanine Produced / PAL Activity (% of Activity): after 24 hours
Procedure: The optimum concentration of 2-mercaptoethanol was determined by carrying out reactions in five vessels with varying concentrations of 2-mercaptoethanol. The procedures used were the same as those described in Examples 1 and 2, with the following modifications. The nutrient medium for the fermentation was composed of: yeast extract (Amber Laboratories, Amberex 1003) 1.35%; corn steep liquor 0.18%; and L-phenylalanine 2.7%. The substrate solution for L-phenylalanine production contained: ammonia 5.1 mole/liter; ammonium sulfate 120 gram/liter; and cinnamic acid 10 gram/liter, with 2.5 gram/liter added at 3, 6, 9, and 12 hours after the addition of cells. The quantity of cells added to each of the vessels was 1.6 gram (dry basis) per liter. After 24 hours, the L-phenylalanine concentration in the reaction mixture was measured, and the PAL activity of the cells was determined.

SMILES: O=C(O)/C=C/c1ccccc1 [t-cinnamic acid]
rate of conversion of L-phenylalanine relative to the maximum rate ([1]; t-cinnamic acid 150 mM (substrate inhibition)): one-half

SMILES: CC[C@H](C)[C@H](N)C(=O)O [L-isoleucine, reference compound]
effect on PAL stability ([1]; extended the useful period of activity of the enzyme): stabilizing effect

PAL Activty (% of Initial) ([2]; 100 mg/l 2-mercaptoethanol): 31.2 % of Initial
L-Phenylalanine Produced ([2]; 100 mg/l 2-mercaptoethanol): 7.34 gm/l
PAL Activty (% of Initial) ([2]; 500 mg/l 2-mercaptoethanol): 39.4 % of Initial
L-Phenylalanine Produced ([2]; 500 mg/l 2-mercaptoethanol): 9.26 gm/l
PAL Activty (% of Initial) ([2]; 1,000 mg/l 2-mercaptoethanol): 35.9 % of Initial
L-Phenylalanine Produced ([2]; 1,000 mg/l 2-mercaptoethanol): 8.54 gm/l
PAL activity of the cells in the reactor, of the initial activity [3]: 27%
L-phenylalanine in the reaction mixture ([3]; ammonium carbonate): 33.3 gram/liter
L-Phenylalanine Produced ([4]; ammonium carbonate): 12.9 gm/l
PAL Activity (% of Initial) ([4]; ammonium carbonate): 46.6 % of Initial
L-Phenylalanine Produced ([4]; ammonium sulfate): 10.8 gm/l
PAL Activity (% of Initial) ([4]; ammonium sulfate): 38.7 % of Initial
L-Phenylalanine Produced ([5]; 300 mg/l 2-mercaptoethanol): 12.6 gram/l
PAL Activity (% of Activity) ([5]; 300 mg/l 2-mercaptoethanol): 27.5 % of Activity
L-Phenylalanine Produced ([5]; 400 mg/l 2-mercaptoethanol): 14.6 gram/l
PAL Activity (% of Activity) ([5]; 400 mg/l 2-mercaptoethanol): 32.4 % of Activity
L-Phenylalanine Produced ([5]; 500 mg/l 2-mercaptoethanol): 15.4 gram/l
PAL Activity (% of Activity) ([5]; 500 mg/l 2-mercaptoethanol): 34.2 % of Activity
L-Phenylalanine Produced ([5]; 600 mg/l 2-mercaptoethanol): 14.8 gram/l
PAL Activity (% of Activity) ([5]; 600 mg/l 2-mercaptoethanol): 32.7 % of Activity
L-Phenylalanine Produced ([5]; 800 mg/l 2-mercaptoethanol): 14.6 gram/l
PAL Activity (% of Activity) ([5]; 800 mg/l 2-mercaptoethanol): 31.7 % of Activity
optimum concentration of 2-mercaptoethanol ([5]; Example 3 conditions): approximately 500 mg/liter
SMILES: OCCS [2-mercaptoethanol]
